# Data from patent publication US20240122893A1 (priority 2021, published 2024).
# Where a name gives a salt, the structure may show the parent alone. Read-outs that look alike come from different tables or passages of the source.
# Legend:
# [1] = test system: SARS-CoV-2; assay: CPE inhibition assay, SARS-CoV-2 strains in Vero C1008 cells; format: cell-based
# [2] = test system: SARS-CoV-2; assay: organism not typed; conditions: Caco-2, read-out: IC50, reduction of viral RNA
# Method: vRNA determination: Zymo Quick-RNA Viral 96 Kit (Zymo Research) was used to isolate RNA from cell supematants according to the manufacturer's protocol. cDNA synthesis was performed using qScript cDNA Supermix containing randomhexamers and oligo-dT primers following the manufacture's protocol (Quanta Biosciences). Real-time PCR was performed in technical triplicate for each sample using TaqMan Fast Advanced Master Mix (Applied Biosystems) on a StepOne Plus Real Time PCR machine (Applied Biosystems). […] The cycling parameters were as follows: (i) 2 min at 50° C.; (ii) 2 min at 95° C.; and (iii) 45 cycles at 95° C. for 3s and 55° C. for 30 s. Molecular standard curves were generated using serial dilutions of a plasmid containing the complete SARS-CoV-2N gene (Integrated DNA Technologies, Catalog #10006625).
# Viral RNA determination. Zymo Quick-RNA Viral 96 Kit (Zymo Research) was used to isolate RNA from cell supematants according to the manufacturer's protocol. cDNA synthesis was performed using qScript cDNA Supermix containing random hexamers and oligo-dT primers following the manufacture's protocol (Quanta Biosciences). Real-time quantitative reverse transcription
# PCR (RT-qPCR) was performed in technical triplicate for each sample using TaqMan Fast Advanced Master Mix (Applied Biosystems) on a StepOne Plus Real Time PCR machine (Applied Biosystems). […]
# [3] = test system: SARS-CoV-2/USA/WI1/2020
# Method: Flow cytometry: Lungs were minced and incubated at 37° C. in an enzyme cocktail of RPMI containing 2.4 mg/ml collagenase I and 20 μg/ml DNase (Invitrogen), then mashed through a 70-μm nylon cell strainer (BD Falcon). […] For analysis immediately ex vivo, cells were washed once in PBS and immediately stained for viability with Biolegend Live/Dead Zombie NIR Fixable Viability Dye and Fc Block for 10 min at room temperature. Cell surface staining was performed in 100 uL of 20% BD Horizon™ Brilliant Stain Buffer+ PBS with surface stain antibody cocktail for 20 min at room temperature. Cells were fixed and permeabilized with eBioscience™ FoxP3/Transcription Factor Staining kit 1× Fixation/Permeabilization reagent overnight at 4° C. Cells were washed with 1× Permeabilization/Wash buffer. Intracellular staining (ICS) was performed in 100 uL 1× Permeabilization/Wash buffer with ICS antibody cocktail for 45 min at room temperature. Cells were washed once with Permeabilization/Wash buffer then resuspended in Permeabilization/Wash buffer for acquisition by flow. Samples were run on a 3 laser Cytek Aurora spectral flow cytometer. FCS files were analyzed using Flowjo v10 (10.6.2.) software.
# Flow cytometry. Lungs were minced and incubated at 37° C. in an enzyme cocktail of RPMI containing 2.4 mg/mi collagenase I and 20 μg/ml DNase (Invitrogen), then mashed through a 70-μm nylon cell strainer (BD Falcon). […] For analysis immediately ex vivo, cells were washed once in PBS and immediately stained for viability with Biolegend Live/Dead Zombie NIR Fixable Viability Dye and Fc Block for 10 min at room temperature. Cell surface staining was performed in 100 μL of 20% BD Horizon™ Brilliant Stain Buffer+ PBS with surface stain antibody cocktail for 20 min at room temperature. Cells were fixed and permeabilized with eBioscience™ FoxP3/Transcription Factor Staining kit 1× Fixation/Permeabilization reagent overnight at 4° C. Cells were washed with 1× Permeabilization/Wash buffer. Intracellular staining (ICS) was performed in 100 μL 1× Permeabilization/Wash buffer with ICS antibody cocktail for 45 min at room temperature. Cells were washed once with Permeabilization/Wash buffer then resuspended in Permeabilization/Wash buffer for acquisition by flow. […] For the myeloid flow cytometry functional staining, the cells were incubated with protein transport inhibitors for 4 h. Samples were run on a 3 laser Cytek Aurora spectral flow cytometer or a FACSAria II spectral flow cytometer (BD). FCS files were analyzed using Flowjo v10.6.2 software (BD). […] High-dimensional unbiased analysis of cell phenotypes was performed using Flowjo plugins DownSample v3 and UMAP.
# [4] = test system: HCoV-OC43; assay: microbe, parasite or virus in culture; conditions: Betacoronavirus 1, OC43, MRC5, read-out: IC50, median inhibitory concentration
# [5] = test system: SARS-CoV-2/USA/WI1/2020; conditions: for protein concentration in bronchoalveolar lavage (BAL), measure of lung injury: 6 days post-infection; for SARS-CoV-2 spike protein distribution in the lungs: vs infected untreated animals
# [6] = test system: HCoV-OC43; assay: microbe, parasite or virus in culture; format: cell-based, Human coronavirus OC43
# [7] = test system: Vero C1008 cells
# [8] = test system: MRC-5 cells; conditions: human
# [9] = cited from earlier work
# [10] = test system: SARS-CoV-2; conditions: treatment of cells with NRF2 agonists; cited from earlier work
# [11] = after PMA/ionomycin stimulation
# [12] = 30 mg/kg daily oral gavage, vs untreated infected controls
smiles,measurement,setting,value
"C[S+]([O-])CCCCN=C=S (centres unmarked) [SFN, sulforaphane]",IC50,[1]; 614G+ clinical strain USA/DCHP-7/2020 (DC),29 µM
same,IC50,[1]; 614G+ clinical strain USA/MDHP-20/2020 (MD),28 µM
same,IC50,"[1]; Severe acute respiratory syndrome coronavirus 2, Vero C1008, 614G+ clinical strain USA/DCHP-7/2020 (DC)",51 µM
same,IC50,"[1]; Severe acute respiratory syndrome coronavirus 2, Vero C1008, 614G+ clinical strain USA/MDHP-20/2020 (MD)",48 µM
same,IC50,"[1]; Severe acute respiratory syndrome coronavirus 2, Vero C1008, 24 h, SARS-CoV-2-Wuhan-Hu-1, established infection, drug added 24 h after virus, read-out: IC50, median inhibitory concentration",13 µM
same,IC50,"[1]; Severe acute respiratory syndrome coronavirus 2, Vero C1008, both reference strains, Wuhan-Hu-1 and USA-WA1/2020 (Example 1)",15 to 17 µM
same,IC50,"[1]; Severe acute respiratory syndrome coronavirus 2, Vero C1008, read-out: IC50, median inhibitory concentration, SARS-CoV-2-Wuhan-Hu-1, Vero C1008, drug 1-2 h before virus",12 µM
same,IC50,"[1]; Severe acute respiratory syndrome coronavirus 2, Vero C1008, reference strain USA-WA1/2020, drug 1 h before virus (Example 2)",31 µM
same,IC50,[2],2.4 µM
same,B cells in the spleen and Ly6G+ neutrophils in the lung,[3]; Example 1,significantly higher expansion
same,CCR2 expression on alveolar macrophages,[3]; Example 1,reduced
same,CD86 on lung-resident macrophages,[3]; Example 1,increased
same,IL-10 and TGFβ produced by macrophages,[3]; Example 1,increased
same,Ki67 and MHCII on CD8 T cells immediately ex vivo,[3]; Example 1,upregulation
same,PD-L1 expression on macrophages,[3]; Example 1,lower levels
same,"frequency of B cells, cytotoxic NK cells and CD8 T cells",[3]; Example 1,increased frequency
same,"expression of activation markers CD80, CD86, PD-L1, MHC-II on lung alveolar and interstitial macrophages",[3]; Example 2,lower expression
same,"PD1, MHC-II and Ki-67 on lung CD8+ and CD4+ T cells, directly ex vivo","[3]; Example 2, P<0.05",significantly decreased
same,"frequencies of lung alveolar and interstitial macrophages producing IL-10, IL-1β, TNF-α, TGF-β","[3]; Example 2, P<0.05",significantly lower frequencies
same,infection-induced increase of IL-1β in alveolar macrophages,[3]; P<0.0001,abrogated
same,CPT1a+VDAC+ myeloid cells in lung,[3]; P=0.01,significantly decreased
same,percentage of monocytes and CD11c+ dendritic cells out of total CD45+ immune cells in the lungs,[3]; P=0.01,significantly decreased
same,IFN-γ and IL-10 from lung CD4+ T cells,[3]; [11],lower levels
same,frequency of IL-4 and IL-17 in CD4+ T cells,[3]; [11],not significantly altered
same,TNF-α in alveolar macrophages and IFN-γ in T cells,"[3]; mouse, in vivo",reduction
same,"recruitment of myeloid cells (monocytes, dendritic cells) into the lungs",[3]; vs infected untreated mice,significantly reduced
same,IC50,[4],18 µM
same,"bodyweight loss, less than infected untreated controls","[5]; 30 mg/kg daily oral gavage from one day before inoculation, day 6 post inoculation",7.5%
same,"protein concentration in bronchoalveolar lavage (BAL), measure of lung injury",[5]; [12],significantly lower
same,"protein concentration in bronchoalveolar lavage (BAL), measure of lung injury","[5]; 30 mg/kg daily oral gavage, vs untreated infected controls, listed as sulforaphane",lower
same,"reduction in lung viral load, total SARS-CoV-2 N protein copies, not normalized to Pol2Ra","[5]; 30 mg/kg daily oral gavage, P=0.1308",1.46 log
same,weight loss compared to controls,"[5]; 30 mg/kg daily oral gavage, day 6 post inoculation",lost significantly less weight
same,"reduction in lung viral load, SARS-CoV-2 N protein copies normalized to Pol2Ra","[5]; 30 mg/kg daily oral gavage, vs infected untreated controls",1.5 log
same,viral burden in BAL / alveolar fluid (qPCR),[5]; [12],significantly lower
same,histopathology score of lung inflammation,"[5]; 30 mg/kg daily, untreated controls 6/16",1/16
same,"lung viral load, treated vs controls (Example 1)",[5]; daily oral gavage from one day before inoculation,no statistically significant differences
same,reduction of viral replication in the lungs,[5]; prophylactic SFN treatment,1.5 orders of magnitude
same,SARS-CoV-2 spike protein distribution in the lungs,[5],focal distribution
same,SARS-CoV-2 spike protein distribution in the lungs,[5]; listed as sulforaphane,smaller area
same,pulmonary pathology (H&E lung sections),[5]; vs infected untreated mice,lower degree of pulmonary pathology
same,IC50,"[6]; Betacoronavirus 1, OC43, Vero C1008, 24 h, Vero C1008, established infection, drug added 24 h after virus, read-out: IC50, median inhibitory concentration",18 µM
same,IC50,"[6]; Betacoronavirus 1, OC43, Vero C1008, Vero C1008, drug 24 h before virus, drug washed out and then virus added, read-out: IC50, median inhibitory concentration",21 µM
same,IC50,"[6]; Betacoronavirus 1, OC43, Vero C1008, read-out: IC50, median inhibitory concentration, Vero C1008, drug added 1-2 h before virus",10 µM
same,"TD50, median cytotoxic dose, range over assays","[7]; African green monkey, human",73 to 89 µM
same,"TD50, median cytotoxic dose",[8],83 µM
same,tolerability,[9]; SFN-rich broccoli sprouts corresponding to 50 to 400 μmol SFN daily,well tolerated without clinically significant adverse effects
same,elimination from plasma,[9]; in vivo,rapidly eliminated from plasma
"CCC(CC)COC(=O)[C@H](C)N[P@](=O)(OC[C@H]1O[C@@](C#N)(c2ccc3c(N)ncnn23)[C@H](O)[C@@H]1O)Oc1ccccc1 [RDV, remdesivir, reference compound]",IC50,"[1]; Severe acute respiratory syndrome coronavirus 2, Vero C1008, SARS-CoV-2, FIG. 2E, Vero C1008, drug 1 h before virus, read-out: IC50",4 µM
same,IC50,"[1]; Severe acute respiratory syndrome coronavirus 2, Vero C1008, four strains of SARS-CoV-2 (Example 1), read-out: IC50",4 to 9 µM
same,IC50,"[6]; Betacoronavirus 1, OC43, Vero C1008, drug added 1-2 h before virus, read-out: IC50, median inhibitory concentration",22 µM
same,"TD50, median cytotoxic dose","[7]; Vero C1008, drug added 1-2 h before virus (HCoV-OC43 assay)",142 µM
COC(=O)/C=C/C(=O)OC [dimethyl fumarate],replication of SARS-CoV-2 in vitro,[10],inhibited replication
C=C(CC(=O)OCCCCCCCC)C(=O)O [4-octyl-itaconate],replication of SARS-CoV-2 in vitro,[10],inhibited replication
